The record followed here is patent publication US20090239868A1 (priority 2007, published 2009).

The first test concerns TGF-β induced PAI-1 production. As to the kind of experiment: TGF-β induced PAI-1 production in HepG2 cells (Human Serpin E1/PAI-1 DuoSet). In kind it is cell-based. As to conditions: Compound Concentration: 0.1 μM.
Method: HepG2 cells were seeded on a 96-well culture plate by 2×10^4 cells/well, and were incubated for 24 hours in the MEM medium containing 1% NEAA (Non-Essential Amino Acids), 1 mM pyruvate, and 10% FBS. Then, the medium was changed to a MEM medium containing 1% NEAA, 1 mM pyruvate and 1% FBS, and the cells were further incubated for 24 hours. Subsequently, after the medium was changed to a MEM medium containing 1% NEAA, 1 mM pyruvate and 1% FBS, and then the cells were treated with the test substances (final concentration: 1 μM or 0.1 μM) for one hour, TGF-β1 (final concentration: 1 ng/mL) was added and the cells were further incubated for 24 hours. As controls, a culture solution added TGF-β1 only, and a culture solution cultured without neither the test substances nor TGF-β1 were prepared. After the incubation, the PAI-1 amount was measured using Human Serpin E1/PAI-1 DuoSet (R&D Systems). The PAI-1 amount when treated with TGF-β1 only being “100%”, and the PAI-1 amount when treated without neither the test substances nor TGF-β1 being “0%”, the PAI-1 inhibition ratios of each test substance were calculated.
`O=C(Nc1cc(C(F)(F)F)cc(C(F)(F)F)c1)c1cc(F)ccc1O` [(5)]: the “Inhibition Ratio (PAI-1)” value stood at 71.2%. With `O=C(Nc1cc(C(F)(F)F)cc(C(F)(F)F)c1)c1cc(Br)ccc1O` [(6)], the “Inhibition Ratio (PAI-1)” value came out at 82.3%. Same read-out and setting: the value for `O=C(Nc1cc(C(F)(F)F)cc(C(F)(F)F)c1)c1cc([N+](=O)[O-])ccc1O` [(8)] was 52.8%. On to `N#Cc1ccc(O)c(C(=O)Nc2cc(C(F)(F)F)cc(C(F)(F)F)c2)c1` [(9)], for which the “Inhibition Ratio (PAI-1)” value turned out to be 59.4%. On the same count and under the same terms, the result for `O=C(Nc1cc(C(F)(F)F)cc(C(F)(F)F)c1)c1cc(C(F)(F)F)ccc1O` [(19)] reads 62.2%; that for `O=C(Nc1cc(C(F)(F)F)cc(C(F)(F)F)c1)c1ccc(Cl)cc1O` [(33)], 63.3%; that for `CC(C)c1cc(Br)cc(C(=O)Nc2cc(C(F)(F)F)cc(C(F)(F)F)c2)c1O` [(99)], 59.1%.

The same test, now with this note: Compound Concentration: 1 μM.
Consider `O=C(Nc1cc(C(F)(F)F)cc(C(F)(F)F)c1)c1ccccc1O` [(4)], for which the “Inhibition Ratio (PAI-1)” value is greater than 90%. The same measure, in the same setting: the value for `O=C(Nc1cc(C(F)(F)F)cc(C(F)(F)F)c1)c1cc(F)ccc1O` [(5)] was greater than 90%; that for `O=C(Nc1cc(C(F)(F)F)cc(C(F)(F)F)c1)c1cc(Br)ccc1O` [(6)] was greater than 90%; that for `O=C(Nc1cc(C(F)(F)F)cc(C(F)(F)F)c1)c1cc(I)ccc1O` [(7)] was greater than 90%. On the same count and under the same terms, the value for `O=C(Nc1cc(C(F)(F)F)cc(C(F)(F)F)c1)c1cc([N+](=O)[O-])ccc1O` [(8)] was 85.9%; that for `N#Cc1ccc(O)c(C(=O)Nc2cc(C(F)(F)F)cc(C(F)(F)F)c2)c1` [(9)] was greater than 90%; that for `Cc1ccc(O)c(C(=O)Nc2cc(C(F)(F)F)cc(C(F)(F)F)c2)c1` [(10)] was 89.2%.

With `CC(C)(C)c1ccc(O)c(C(=O)Nc2cc(C(F)(F)F)cc(C(F)(F)F)c2)c1` [(11)], the “Inhibition Ratio (PAI-1)” value was 70.5%. The same measure, in the same setting: the value for `CC(C)(/C=C/c1ccccc1)c1ccc(O)c(C(=O)Nc2cc(C(F)(F)F)cc(C(F)(F)F)c2)c1` [(14)] was 86.6%; that for `CC(C)(C#Cc1ccccc1)c1ccc(O)c(C(=O)Nc2cc(C(F)(F)F)cc(C(F)(F)F)c2)c1` [(15)] was greater than 90%; that for `O=C(Nc1cc(C(F)(F)F)cc(C(F)(F)F)c1)c1cc(-c2ccccc2)ccc1O` [(17)] was 82.9%.

Regarding `CC(C)(CCc1ccccc1)c1ccc(O)c(C(=O)Nc2cc(C(F)(F)F)cc(C(F)(F)F)c2)c1` [(18)], the “Inhibition Ratio (PAI-1)” value is listed as 55.4%. Still for that read-out and setting: the value for `O=C(Nc1cc(C(F)(F)F)cc(C(F)(F)F)c1)c1cc(C(F)(F)F)ccc1O` [(19)] was greater than 90%. The same measure, in the same setting: the value for `O=C(Nc1cc(C(F)(F)F)cc(C(F)(F)F)c1)c1cc(C(F)(F)C(F)(F)F)ccc1O` [(20)] was greater than 90%; that for `CC(=O)c1ccc(O)c(C(=O)Nc2cc(C(F)(F)F)cc(C(F)(F)F)c2)c1` [(26)] was 46.8%; that for `COC(=O)c1ccc(O)c(C(=O)Nc2cc(C(F)(F)F)cc(C(F)(F)F)c2)c1` [(28)] was greater than 90%.

With `CC(=O)Oc1ccccc1C(=O)Nc1cc(C(F)(F)F)cc(C(F)(F)F)c1` [(31)], the “Inhibition Ratio (PAI-1)” value was determined as 75.2%. As to `CC(=O)Oc1ccc(Cl)cc1C(=O)Nc1cc(C(F)(F)F)cc(C(F)(F)F)c1` [(32)], the “Inhibition Ratio (PAI-1)” value was greater than 90%. For `O=C(Nc1cc(C(F)(F)F)cc(C(F)(F)F)c1)c1ccc(Cl)cc1O` [(33)], the “Inhibition Ratio (PAI-1)” value is on record as greater than 90%. Same read-out and setting: the value for `O=C(Nc1cccc(C(F)(F)F)c1F)c1cc(Cl)ccc1O` [(35)] was greater than 90%; that for `O=C(Nc1ccc(F)c(C(F)(F)F)c1)c1cc(Cl)ccc1O` [(36)] was greater than 90%.

In the case of `O=C(Nc1cc(F)cc(C(F)(F)F)c1)c1cc(Cl)ccc1O` [(37)], the “Inhibition Ratio (PAI-1)” value is on record as greater than 90%. On the same count and under the same terms, the result for `N#Cc1ccc(NC(=O)c2cc(Br)ccc2O)cc1C(F)(F)F` [(39)] reads greater than 90%; that for `Cc1c(NC(=O)c2cc(Cl)ccc2O)cccc1C(F)(F)F` [(40)], greater than 90%; that for `O=C(Nc1ccc(C(F)(F)F)cc1)c1cc(Cl)ccc1O` [(43)], greater than 90%. On the same count and under the same terms, the value for `O=C(Nc1cccc(Cl)c1)c1cc(Br)ccc1O` [(44)] was 82.4%. Still for that read-out and setting: the value for `O=C(Nc1ccc(Cl)cc1)c1cc(Br)ccc1O` [(45)] was greater than 90%; that for `O=C(Nc1cc(F)cc(F)c1)c1cc(Br)ccc1O` [(46)] was greater than 90%; that for `O=C(Nc1cc(Cl)cc(Cl)c1)c1ccccc1O` [(47)] was 35.6%. As to `O=C(Nc1cc(Cl)cc(Cl)c1)c1ccc(Cl)cc1O` [(48)], the “Inhibition Ratio (PAI-1)” value is given as greater than 90%. Still for that read-out and setting: the result for `O=C(Nc1cc(Cl)c(Cl)c(Cl)c1)c1cc(Br)ccc1O` [(49)] reads 70.7%; that for `Cc1cc(C)cc(NC(=O)c2cc(Br)ccc2O)c1` [(50)], 66.0%. As to `CC(C)(C)c1cc(NC(=O)c2cc(Cl)ccc2O)cc(C(C)(C)C)c1` [(51)], the “Inhibition Ratio (PAI-1)” value amounted to 42.8%. The same measure, in the same setting: the result for `O=C(Nc1cccc(-c2ccccc2)c1)c1cc(Cl)ccc1O` [(52)] reads 81.0%; that for `COc1cc(NC(=O)c2cc(Cl)ccc2O)cc(-c2ccccc2)c1` [(53)], 52.4%. Same read-out and setting: the result for `CC(=O)Oc1ccccc1C(=O)Nc1cc(Cl)cc(Cl)c1` [(54)] reads 78.9%; that for `O=C(Nc1cc(C(F)(F)F)cc(C(F)(F)F)c1)c1c(O)cccc1O` [(55)], greater than 90%; that for `Cc1ccc(C(=O)Nc2cc(C(F)(F)F)cc(C(F)(F)F)c2)c(O)c1` [(56)], greater than 90%. Still for that read-out and setting: the value for `O=C(Nc1cc(C(F)(F)F)cc(C(F)(F)F)c1)c1cc(Cl)cc(Cl)c1O` [(57)] was greater than 90%. As to `O=C(Nc1cc(C(F)(F)F)cc(C(F)(F)F)c1)c1c(O)c(Cl)cc(Cl)c1Cl` [(59)], the “Inhibition Ratio (PAI-1)” value is on record as greater than 90%. On the same count and under the same terms, the result for `O=C(Nc1cc(C(F)(F)F)cc(C(F)(F)F)c1)c1c(O)cccc1F` [(60)] reads 38.1%. In the case of `O=C(Nc1cc(C(F)(F)F)cc(C(F)(F)F)c1)c1cccc(Cl)c1O` [(61)], the “Inhibition Ratio (PAI-1)” value was greater than 90%. `O=C(Nc1cc(OCC(F)(F)F)cc(C(F)(F)F)c1)c1cc(Cl)ccc1O` [(63)]: the “Inhibition Ratio (PAI-1)” value is recorded as 79.5%. Still for that read-out and setting: the result for `CCCCCCOc1ccc(S(C)(=O)=O)cc1NC(=O)c1cc(Cl)ccc1O` [(64)] reads 73.6%; that for `Cc1ccc(C(=O)C(C)(C)C)cc1NC(=O)c1cc(Cl)ccc1O` [(65)], 85.5%; that for `Cc1ccc(-c2ccccc2)cc1NC(=O)c1cc(Cl)ccc1O` [(66)], 84.1%.

As to `O=C(Nc1cccc(C(F)(F)F)c1)c1cc(Cl)ccc1O` [(67)], the “Inhibition Ratio (PAI-1)” value is greater than 90%. With `O=C(Nc1cccc(OC(F)(F)F)c1)c1cc(Cl)ccc1O` [(68)], the “Inhibition Ratio (PAI-1)” value is given as greater than 90%. Still for that read-out and setting: the result for `O=C(Nc1ccc(OC(F)(F)F)cc1)c1cc(Cl)ccc1O` [(70)] reads greater than 90%; that for `O=C(Nc1ccc(Cl)cc1Cl)c1cc(Cl)ccc1O` [(71)], greater than 90%; that for `CC(C)(C)c1ccc(NC(=O)c2cc(Cl)ccc2O)cc1` [(72)], 71.4%. In the case of `CCCCCCc1ccc(NC(=O)c2cc(Cl)ccc2O)cc1` [(73)], the “Inhibition Ratio (PAI-1)” value is given as greater than 90%. Still for that read-out and setting: the value for `O=C(Nc1ccc(C2CCCCC2)cc1)c1cc(Cl)ccc1O` [(74)] was 87.3%; that for `O=C(Nc1ccccc1Cl)c1cc(Cl)ccc1O` [(77)] was 74.3%; that for `CCCCc1ccc(NC(=O)c2cc(Cl)ccc2O)cc1` [(78)] was 80.6%. Same read-out and setting: the result for `CC(C)c1cccc(NC(=O)c2cc(Cl)ccc2O)c1` [(81)] reads 40.0%.

In the case of `O=C(Nc1cccc(SC(F)(F)F)c1)c1cc(Cl)ccc1O` [(82)], the “Inhibition Ratio (PAI-1)” value is on record as greater than 90%. For `O=C(Nc1ccc(SC(F)(F)F)cc1)c1cc(Cl)ccc1O` [(83)], the “Inhibition Ratio (PAI-1)” value is greater than 90%. Regarding `O=C(Nc1ccc(S(=O)(=O)C(F)(F)F)cc1)c1cc(Cl)ccc1O` [(84)], the “Inhibition Ratio (PAI-1)” value is greater than 90%. Still for that read-out and setting: the value for `O=C(Nc1ccc(F)c(F)c1)c1cc(Cl)ccc1O` [(85)] was 84.0%. Turning to `CCC(C)c1ccc(NC(=O)c2cc(Cl)ccc2O)cc1` (stereo not shown) [(87)], the “Inhibition Ratio (PAI-1)” value came to 89.6%. Still for that read-out and setting: the result for `O=C(Nc1ccc(OC(F)F)cc1)c1cc(Cl)ccc1O` [(90)] reads greater than 90%; that for `CC(C)(C)c1cccc(NC(=O)c2cc(Cl)ccc2O)c1` [(92)], greater than 90%.

`O=C(Nc1cccc(S(=O)(=O)C(F)(F)F)c1)c1cc(Cl)ccc1O` [(94)]: the “Inhibition Ratio (PAI-1)” value was greater than 90%. On the same count and under the same terms, the value for `CCCCCCOc1cccc(NC(=O)c2cc(Cl)ccc2O)c1` [(95)] was 60.1%; that for `O=C(Nc1ccc(-c2ccccc2)cc1)c1cc(Cl)ccc1O` [(96)] was 71.0%; that for `O=C(Nc1cc(C(F)(F)F)cc(C(F)(F)F)c1)c1cccc(-c2ccccc2)c1O` [(97)] was 79.5%. Turning to `CC(C)c1cccc(C(=O)Nc2cc(C(F)(F)F)cc(C(F)(F)F)c2)c1O` [(98)], the “Inhibition Ratio (PAI-1)” value is 42.2%. Still for that read-out and setting: the value for `CC(C)c1cc(Br)cc(C(=O)Nc2cc(C(F)(F)F)cc(C(F)(F)F)c2)c1O` [(99)] was 89.4%; that for `Cc1cc(Br)cc(C(=O)Nc2cc(C(F)(F)F)cc(C(F)(F)F)c2)c1O` [(100)] was greater than 90%; that for `O=C(Nc1cc(C(F)(F)F)cc(C(F)(F)F)c1)c1cc(Br)cc(-c2ccccc2)c1O` [(103)] was greater than 90%. Still for that read-out and setting: the value for `O=C(Nc1cc(C(F)(F)F)cc(C(F)(F)F)c1)c1ccc(-c2ccccc2)cc1O` [(106)] was greater than 90%.
